Converted amounts (≈) assume the structure as drawn. Where two headings read alike, the source gives them in different places. Bridge positions count the residues as written; N and C are the ends. Square brackets hold non-standard residues; d marks the D form. Peptide text beside a SMILES is read from it. * marks the point of attachment. X1 = CC[C@H](C)CCCCC(=O)*; Dab = NCC[C@H](N)C(=O)O
Experiments:
[1] = system: colistin-resistant P. aeruginosa clinical isolate; format: cell-based, Pseudomonas aeruginosa; conditions: broth microdilution, two replicates
[2] = system: K. pneumoniae ATCC 13883; format: cell-based, Klebsiella pneumoniae; conditions: broth microdilution
[3] = system: colistin-resistant A. baumannii clinical isolate; format: cell-based, Acinetobacter baumannii; conditions: broth microdilution
[4] = system: colistin-resistant K. pneumoniae clinical isolate; format: cell-based, Klebsiella pneumoniae; conditions: broth microdilution
[5] = system: A. baumannii ATCC 19606; format: cell-based, Acinetobacter baumannii; conditions: broth microdilution
[6] = Isothermal titration calorimetry; format: binding, Escherichia coli; conditions: ITC, 37°C
[7] = ref [52], cited from earlier work
[8] = above the Tc; ref [54]; cited from earlier work
[9] = Fluorometric assay, purified LPS; format: binding; conditions: E. coli, K. pneumoniae, S. enterica (and P. aeruginosa) LPS
[10] = system: bacteria; conditions: ref [47]; [48]; cited from earlier work

CC[C@H](C)CCCCC(=O)N[C@@H](CCN)C(=O)N[C@H](C(=O)N[C@@H](CCN)C(=O)N[C@H]1CCNC(=O)[C@H]([C@@H](C)O)NC(=O)[C@H](CCN)NC(=O)[C@H](CCN)NC(=O)[C@H](CC(C)C)NC(=O)[C@@H](CC(C)C)NC(=O)[C@H](CCN)NC1=O)[C@@H](C)O [Colistin, colistin] (X1-[Dab]T[Dab][Dab][Dab][dL]L[Dab][Dab]T; lactam 4-C (inferred); N-terminus assumed)
MIC [1]: > 128 µg/mL
MIC [2]: 1 µg/mL (≈ 0.855 µM)
MIC [3]: 16 µg/mL (≈ 13.7 µM)
MIC [4]: > 128 µg/mL
MIC [5]: 1 µg/mL (≈ 0.855 µM)

polymyxin B [PmB]
Absolute peptide concentration in the cell where saturation began ([6]; LPS 125 μM, 14th injection (PmB), 18th injection (DPmB3)): 98 µM
ΔH1 ([6]; first set of sites, 20 mM HEPES pH 7.0, two-site model): -1.5 ± 0.4 kcal/mol
ΔS1 ([6]; first set of sites, calculated from ΔH and ΔG0): 6.9 kcal/mol
ΔH2 ([6]; second set of sites, 20 mM HEPES pH 7.0, two-site model): -12 ± 3.7 kcal/mol
ΔS2 ([6]; second set of sites, calculated from ΔH and ΔG0): -1.8 kcal/mol
Calorimetric reaction with LPS ([7]; temperatures ≤30°C, below Tc of LPS): endothermic
Calorimetric reaction with LPS ([7]; ≥35°C, above phase transition temperature, [53]): exothermic
Calorimetric reaction with LPS [8]: endothermic

polymyxin B nonapeptide [PBN]
Binding affinity for isolated LPS, comparison in words [9]: lowest binding affinity for LPS
Antibacterial activity [10]: negligible antibacterial activity

Reference: PMC3106281 (Analytical biochemistry, 2010)
